According to the NIST ThermoML archive (doi:10.1021/acs.jced.9b00535):
± gives the expanded uncertainty stated by the source. Values belong to the molecule of their own block, whether it stands above or below them.

Conditions: Liquid, Ebulliometric method (Recirculating still)

vapor or sublimation pressure (390.75 K): 101.3 ± 3 kPa
SMILES: CCCCO [butan-1-ol]

vapor or sublimation pressure (439.15 K): 101.3 ± 3 kPa
SMILES: CC(=O)N(C)C [N,N-dimethylethanamide]

SMILES: CC(=O)CC(C)C [4-methylpentan-2-one]
vapor or sublimation pressure (389.15 K): 101.3 ± 3 kPa
